Source: patent US8796415B2, “Inhibitors of guanine exchange factors and their use as anticancer drugs” (Centre National de la Recherche Scientifique, priority 2009, dated 2014)
“Also recorded” adds a separate entry of the source. Ends that are not written are not given here.

Key:
Type in all cases: biochemical
Tgat = test: FRET fluorescence nucleotide exchange kinetics assay, Tgat/RhoA; settings: for Ki / inhibition of Tgat GEF activity in kinetics fluorescence assay: RhoA 1 μM, Tgat 0.5 μM; for Ki: GST-TRIP peptides up to 100 μM, read-out: apparent inhibition constant (Kiapp) towards Tgat; for inhibition of Tgat GEF activity in kinetics fluorescence assay: increasing GST-TRIP peptide concentrations up to 100 μM; for efficiency at inhibiting the exchange activity of Tgat relative to TRIPα: from Kiapp values
Method: FIG. 4 represents the inhibition of Tgat GEF activity by TRIPT16M/L17S (SEQ ID NO: 41) and TRIPE32G (SEQ ID NO: 40) in vitro. FRET fluorescence exchange assays were performed using constant concentrations of RhoA (1 μM), equal amounts (0.5 μM) of Tgat (left panel) or Trio DH2 (right panel), and increasing concentrations of GST-TRIP peptides, up to 100 μM. Results were expressed as kobs values plotted as a function of the indicated TRIP inhibitor concentration.
FIG. 5 represents a histogram showing the apparent inhibition constants (Ki app) of the TRIP peptides for Tgat and Trio DH2, as indicated. The values and error bars are calculated from at least three independent experiments. Error bars represent standard deviation
Specific exchange rates of Tgat were measured with a fluorescence-based kinetics assay, using a 6His-RhoA construct (gift of Dr Derewenda, Charlottesville University, Virginia) purified as described (Oleksy et al., 2004). Exchange activities were followed by fluorescence resonance energy transfer (FRET) between the GTPase tryptophanes (λex=292 nm) and the methylanthranyloil group of mant-GTP (λem=440 nm) as described (Zeeh et al., 2006). All fluorescence measurements were performed with a CARY Eclipse fluorimeter (Varian). For each kobs determination, RhoA (1 μM) and Tgat (or Trio DH2) were preincubated 3 min at 25° C. in 700 μL reaction buffer (50 mM Tris pH 7.5, 50 mM NaCl, 2 mM MgCl2, 1 mM DTT). The exchange reaction was initiated by 10 μM mant-GTP and measured for 10 min until the plateau was reached. kobs were calculated by fitting the FRET fluorescence changes to a single exponential, using the Kaleidagraph software. Specific exchange activities were calculated by linear regression of kobs values determined for a range of GEF concentrations (0, 0.2, 0.3, 0.4, 0.5 and 1 μM).
Radioactive [3H]-GDP dissociation assays were performed as described (Schmidt et al., 2002). Briefly, 0.15 μM GST-Trio DH2-PH2 was preincubated for 15 min with 3 μM of GST-TRIP inhibitors. The reaction was started by addition of 0.4 μM [3H]-GDP-loaded RhoA and 1 mM GTP, and the reaction mix was filtered after 0 min and 15 min incubation at 25° C. Inhibition efficiency is expressed as the ratio between [3H]-GDP-bound RhoA at 15 and 0 min. Apparent inhibition constants (Kiapp) of TRIP-like peptides were determined from kobs values obtained at increasing peptide concentrations using the above fluorescence nucleotide exchange assay. Kiapp was calculated from the hyperbolic fit of kobs values as a function of the inhibitor concentration as described (Zeeh et al., 2006). TRIP-like peptide specificity was assayed using mant-GTP fluorescence kinetics (λex=360 nm, λem=460 nm) in a FLX800 Microplate Fluorescence Reader (BioTek Instruments). 0.5 μM Tgat, p63RhoGEF, Lbc, and p115RhoGEF, or 0.1 μM Dbl and Trio DH1-PH1 were preincubated 5 min at 25° C. in the presence of 20 μM GST, GST-TRIPE32G or TRIPT16M/L17S and 1 μM mant-GTP. The exchange reaction was initiated by addition of 1 μM RhoA or RhoG and monitored for 10 min.

Trio DH1-PH1 = biological target: T1, Trio DH1-PH1 (Homo sapiens, UniProt O75962); test: mant-GTP fluorescence kinetics specificity assay, RhoG/Trio DH1-PH1; settings: peptide 20 μM, 1 μM RhoG
T1 construct: Recombinant GST-Trio DH2-PH2, GST-Trio DH1-PH1, GST-Dbl (DH-PH domain); GST (N); made in house
Method: (§1) Figures represent the comparison of TRIPE32G and TRIPT16M/L17S inhibition efficiency on different GTPase/RhoGEF systems, using 1 μM GTPase and 0.5 μM GEF as follows:
(§2) In each assay, the peptides were used at a concentration of 20 μM, corresponding to a 40 fold molar excess of inhibitor versus GEF. All fluorescence kinetics assays were performed using 1 μM mant-GTP. Results are expressed as Relative Fluorescence Units (RFU) versus time. The reaction performed in the absence of GEF reflects the spontaneous exchange activity of the GTPase.
(§3) Radioactive [3H]-GDP dissociation assays were performed as described (Schmidt et al., 2002). […] Inhibition efficiency is expressed as the ratio between [3H]-GDP-bound RhoA at 15 and 0 min. Apparent inhibition constants (Kiapp) of TRIP-like peptides were determined from kobs values obtained at increasing peptide concentrations using the above fluorescence nucleotide exchange assay. Kiapp was calculated from the hyperbolic fit of kobs values as a function of the inhibitor concentration as described (Zeeh et al., 2006). TRIP-like peptide specificity was assayed using mant-GTP fluorescence kinetics (λex=360 nm, λem=460 nm) in a FLX800 Microplate Fluorescence Reader (BioTek Instruments). […] The exchange reaction was initiated by addition of 1 μM RhoA or RhoG and monitored for 10 min.

Lbc = biological target: T2, Lbc (Homo sapiens, UniProt Q12802); test: mant-GTP fluorescence kinetics specificity assay, RhoA/Lbc; settings: peptide 20 μM, 0.5 μM GEF, 1 μM RhoA
T2 construct: GST-Dbl (DH-PH domain), GST-Lbc (DH-PH), GST-p63RhoGEF (DH domain) and GST-RhoG were purified as described previously; GST (N); made in house
T2 sequence (Q12802 1994-2333): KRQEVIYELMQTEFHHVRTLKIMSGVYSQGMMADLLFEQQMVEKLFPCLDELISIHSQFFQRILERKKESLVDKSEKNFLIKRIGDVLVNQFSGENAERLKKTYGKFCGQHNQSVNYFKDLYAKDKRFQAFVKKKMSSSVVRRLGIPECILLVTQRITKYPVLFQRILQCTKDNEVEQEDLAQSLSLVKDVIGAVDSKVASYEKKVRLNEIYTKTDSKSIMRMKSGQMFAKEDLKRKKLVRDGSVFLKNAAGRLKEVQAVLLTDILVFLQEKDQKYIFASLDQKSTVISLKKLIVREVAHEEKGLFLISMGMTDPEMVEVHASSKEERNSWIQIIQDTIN
Method: as §1, §2, §3

Ki (Tgat) [µM]	effect on exchange activity of Trio DH1-PH1/RhoG (Trio DH1-PH1)	effect on exchange activity of Lbc/RhoA (Lbc)	Substance	inhibition of Tgat GEF activity in kinetics fluorescence assay (Tgat)	inhibition of Tgat GEF activity in kinetics fluorescence assay (Tgat; listed as GST-TRIPα)	efficiency relative to TRIPα (Tgat GEF activity) (Tgat) [fold]	efficiency at inhibiting the exchange activity of Tgat relative to TRIPα (Tgat)
89 ± 33	–	–	AREGADGAICGYNLATLVMLGPSERVFCPLCEPCSSDIYELM [TRIPα]	rather ineffective	no effect	–	–
7.4 ± 5	no effect	no effect	GST-TRIPE32G (AREGADGAICGYNLATLVMLGPSERVFCPLCGPCSSDIYELM; cysteine pairing not given here; also: GST fusion)	inhibited Tgat GEF activity in a dose-dependent manner; also recorded: low micromolar range	–	15	about 15 times
5.1 ± 4	no effect	no effect	GST-TRIPT16M/L17S	inhibited Tgat GEF activity in a dose-dependent manner; also recorded: low micromolar range	–	15	about 15 times
